Measurements from patent US12544381B2, “Topical formulation for JAK inhibitor” (Incyte Corporation, priority 2010, dated 2026).
Structures can show the parent of a compound that is named as a salt.

Test: Solubility studies (Example 4)
Format: physicochemical
Experimental: In order to determine the solubility of (R)-3-(4-(7H-pyrrolo[2,3-d]pyrimidin-4-yl)-1H-pyrazol-1-yl)-3-cyclopentylpropanenitrile (free base) or its phosphate salt, approximately 5 mL of a potential solvent was added to approximately 50 mg of the API or its salt at room temperature. The mixtures were suspended and rotated on a wheel. If the mixtures became clear solutions, more solid material was added. The suspensions were then suspended over 24 hours. The samples were filtered through 0.2 micron filters. The liquid portions were collected and diluted with 50/50 water methanol/water. The concentrations of the diluted samples were analyzed by HPLC. When the free base or salt was fairly insoluble, the results are approximate only.

Q: What does the source list for `N#CC[C@H](C1CCCC1)n1cc(-c2ncnc3[nH]ccc23)cn1` [Phosphate Salt, (R)-3-(4-(7H-pyrrolo[2,3-d]pyrimidin-4-yl)-1H-pyrazol-1-yl)-3-cyclopentylpropanenitrile Phosphoric Acid Salt]?
A: Solubility (Benzyl alcohol): 3000 µg/mL; Solubility (Ethanol): 7300 µg/mL; Solubility (Glycerin): 11000 µg/mL; Solubility (Isopropanol): 600 µg/mL; Solubility (Isosorbide dimethyl ether): 400 µg/mL; Solubility (Olelyl alcohol): 100 µg/mL; Solubility (PEG 200): 23000 µg/mL; Solubility (PEG 300): 14000 µg/mL; Solubility (Propylene glycol): 24000 µg/mL; Solubility (Transcutol): 10000 µg/mL; Solubility (Trolamine): 51000 µg/mL; Solubility (Water/PEG 200 (50/50)): 23000 µg/mL; Solubility (Water/glycerin/trolamine (40/40/20)): 18000 µg/mL; Solubility (Water/glyercin (50/50)): 21000 µg/mL; Solubility (Water, room temperature): 2700 µg/mL; Solubility (pH 4, citric buffer, 0.1M): 1500 µg/mL; Solubility (pH 6, citric buffer, 0.1M): 200 µg/mL
